The values below come from patent US8686048B2, “Immunomodulator and anti-inflammatory compounds” (Rhizen Pharmaceuticals SA, priority 2010, dated 2014).

Data set [1] concerns the target T1, h-DHODH (Homo sapiens, UniProt Q02127).
T1 construct: endogenous in cells; host or cells: U937 cells (membrane fraction, solubilised with 1% octyl glucoside)
The experiment in a line: Dihydro-orotate dehydrogenase inhibition assay (U937 membrane preparations, DCIP reduction). The data set is classed as biochemical. Particulars: U937 membrane preparation. The protocol: Dihydro-Orotate Dehydrogenase Inhibition Assay
Dihydro-orotate dehydrogenase (DHODH) catalyzes the […] of dihydro-orotate to orotate during de novo biosynthesis of pyrimidines Inhibition of DHODH activity in U937 membrane preparations was measured by the dihydro-orotate driven reduction of 2,6 dichloroindophenol (DCIP).
U937 cells were homogenized in 20 mM Tris/HCl (pH 7.2) containing 1 mM EDTA. […] Following washes, the pellet was dissolved in 20 mM Tris/HCl containing 150 mM NaCl, 1 mM EDTA, and 1% octyl glucoside on ice for 1 h. Particulate matter was removed by centrifugation at 100000×g for 1 h at 4° C. […] The mixture was incubated at 37° C. for 4 h before measuring the change in absorbance on a plate reader (BMG Labtech., Germany) at 600 nm. Data were analyzed using GraphPad Prism. IC50 for each compound was determined based on the percent inhibition of dihydro-orotate […].

For data set [2], the system named is IL-17. Nature of the data set: Inhibition of IL-17 release from mouse splenocytes (PMA + ionomycin, ELISA). It counts as cell-based, Balb/c mice. Particulars: Splenocyte, 10 μM, 3 h. Here is the method: 2. Inhibition of IL-17 Release from Mouse Splenocytes:
Splenocytes isolated from Balb/c mice were re-suspended in RPMI medium at a concentration of 1×10^6 cells/ml and seeded in a 6 well plate. Cells were incubated with desired concentrations of the inhibitor for 15 min prior to induction with 10 ng/ml PMA+1 μM ionomycin. After a 3 h incubation, supernatant was collected and analyzed for IL-17 concentration using an ELISA kit. Data were analyzed using GraphPad Prism. IC50 values for each compound were determined based on the percent inhibition due to the test compound compared to the control.
Background: An ELISA detects its analyte on a solid surface through an enzyme-linked reagent.

The structures appear in SMILES notation.

A word on the inhibition: it is the share of the control response that was lost under treatment. As a reminder, the melting point is the temperature, or range, at which the solid turns liquid. The term IC50 denotes the concentration that gives 50% inhibition. High values mean weaker potency, low ones greater potency.

T1 sequence (Q02127 whole entry): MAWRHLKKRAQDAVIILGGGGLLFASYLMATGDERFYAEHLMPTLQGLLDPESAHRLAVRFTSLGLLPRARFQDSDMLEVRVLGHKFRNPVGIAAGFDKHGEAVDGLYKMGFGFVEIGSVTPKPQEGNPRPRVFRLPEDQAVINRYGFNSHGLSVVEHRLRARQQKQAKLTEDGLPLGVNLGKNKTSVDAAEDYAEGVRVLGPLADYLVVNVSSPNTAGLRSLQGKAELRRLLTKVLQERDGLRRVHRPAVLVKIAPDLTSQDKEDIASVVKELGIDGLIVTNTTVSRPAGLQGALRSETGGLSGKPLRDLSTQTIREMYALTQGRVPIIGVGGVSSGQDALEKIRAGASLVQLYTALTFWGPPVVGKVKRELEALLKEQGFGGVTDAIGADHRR

In turn, `O=C(O)c1ccccc1C(=O)Nc1ccc(-c2cccc(OC3CC3)c2)cc1` [Example 95, 2-(3′-cyclopropoxybiphenyl-4-ylcarbamoyl)benzoic acid] returned a melting point of 150.2 to 154.3 °C. This compound also yielded an inhibition at 1 µM in data set [1] (1 uM) of 1.49%. `O=C(O)c1ccccc1C(=O)Nc1c(F)cc(-c2cccc(OC(F)(F)F)c2)cc1F` [Example 93, 2-[3,5-difluoro-3′-(trifluoromethoxy)biphenyl-4-ylcarbamoyl]benzoic acid] came in with a melting point of 158 to 160 °C. Moreover, the “h-DHODH % inhibition 1 uM” value in data set [1] (1 uM) is on record as 10.46%. Compound `Cc1n[nH]c2ccc(-c3cc(F)c(NC(=O)c4ccccc4C(=O)O)c(F)c3)cc12` [Example 64, 2-[2,6-difluoro-4-(3-methyl-1H-indazol-5-yl)phenylcarbamoyl]benzoic acid] had an inhibition at 1 µM in data set [1] (1 uM) of 23.4%. Besides, in data set [2], the inhibition at 10 µM was 15.3%. For the compound `CCCCOc1cccc(-c2ccc(NC(=O)c3ccccc3C(=O)O)cc2F)c1` [Example 97, 2-(3′-butoxy-2-fluorobiphenyl-4-ylcarbamoyl)benzoic acid], the melting point was in the range of 164 to 167 °C. `CCOc1cccc(-c2cc(F)c(NC(=O)c3cccc(F)c3C(=O)O)c(Cl)c2)c1` [Example 38, 2-(3-Chloro-3′-ethoxy-5-fluorobiphenyl-4-ylcarbamoyl)-6-fluorobenzoic acid]: testing at 1 µM in data set [1] (1 uM) gave an inhibition of 27.8%. Further, the inhibition at 10 µM in data set [2] was 9.35%. In the same order, the values of `CCOc1cccc(-c2cc(F)c(NC(=O)c3ccccc3CO)c(F)c2)c1` [Example 37, N-(3′-Ethoxy-3,5-difluorobiphenyl-4-yl)-2-(hydroxymethyl)benzamide] are 14.8% and 17.8%. Compound `CCCCOc1cccc(-c2ccc(NC(=O)c3ccccc3C(=O)O)cc2)c1` [Example 96, 2-(3′-butoxybiphenyl-4-ylcarbamoyl)benzoic acid] had a melting point of 155 to 157 °C.

As for `CC[S+]([O-])c1cccc(-c2cc(F)c(NC(=O)c3ccccc3C(=O)O)c(F)c2)c1` (stereo not drawn) [Example 72, 2-[3′-(ethylsulfinyl)-3,5-difluorobiphenyl-4-ylcarbamoyl]benzoic acid], the inhibition at 1 µM in data set [1] (1 uM) turned out to be 16.9%. In addition, the inhibition at 10 µM in data set [2] is 7.36%. The compound `O=C(O)c1ccccc1C(=O)Nc1c(F)cc(-c2cccc(OCC(F)(F)F)c2)cc1F` [Example 83, 2-[3,5-difluoro-3′-(2,2,2-trifluoroethoxy)biphenyl-4-ylcarbamoyl]benzoic acid] came in with an inhibition at 0.3 µM in data set [1] (compound tested at 0.3 uM (footnote *)) of 43.6%. Further, the inhibition at 10 µM in data set [2] stood at 8.79%. Regarding `CCc1cccc(-c2cc(F)c(NC(=O)c3ccccc3C(=O)O)c(Cl)c2)c1` [Example 65, 2-(3-chloro-3′-ethyl-5-fluorobiphenyl-4-ylcarbamoyl)benzoic acid], the inhibition at 1 µM in data set [1] (1 uM) came out at 71.2%. In data set [1], this compound displayed an IC50 of 146 nM. For the same compound, in data set [2], the inhibition at 10 µM worked out at 11%.

In data set [1] (1 uM), `COc1cc(Cl)cc(-c2cc(F)c(NC(=O)c3ccccc3C(=O)O)c(Cl)c2)c1` [Example 51, 2-(3,3′-Dichloro-5-fluoro-5′-methoxybiphenyl-4-ylcarbamoyl)benzoic acid] returned an inhibition at 1 µM of 26.6%. Besides, the inhibition at 10 µM in data set [2] is 10.8%. For `O=C(O)c1ccccc1C(=O)Nc1c(F)cc(-c2ccc3c(c2)OCO3)cc1F` [Example 47, 2-[4-(Benzo[d][1,3]dioxol-5-yl)-2,6-difluorophenylcarbamoyl]benzoic acid], in that order: 55.2% and 6.22%. For `COc1ccc(F)c(-c2cc(F)c(NC(=O)c3ccccc3C(=O)O)c(F)c2)c1` [Example 58, 2-(2′,3,5-Trifluoro-5′-methoxybiphenyl-4-ylcarbamoyl)benzoic acid], in that order: 76.1% and 5.46%. Regarding `COc1cc(-c2cc(F)c(NC(=O)c3ccccc3C(=O)O)c(F)c2)ccc1Cl` [Example 59, 2-(4′-Chloro-3,5-difluoro-3′-methoxybiphenyl-4-ylcarbamoyl)benzoic acid], testing at 1 µM in data set [1] (1 uM) gave an inhibition of 34.5%. In addition, the inhibition at 10 µM in data set [2] turned out to be 7.36%.
